This passage reports T/C results from PubChem BioAssay AID330 (DTP/NCI, 2004).

“And” between values parts separate entries of the source, which are not always exact repeats. Equal entries are not always repeated. Inconclusive results and toxic doses are left out.

In this assay the test system is P388 leukemia ip, CD2F1 mice, survival T/C. The experiment in a line: NCI In Vivo Anticancer Drug Screen. Data for tumor model P388 Leukemia (intraperitoneal) in CD2F1 (CDF1) mice. The settings on record: endpoint: median survival time, higher = longer survival. In outline:
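Mice carrying the transplanted tumor received test compound or vehicle. Survival was recorded in each group, and the value is the treated-group measurement divided by that of the vehicle-treated control group.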

Setting [1] is: dose: 60.0 mg/kg/injection, schedule: Q01DX005 (ip), vehicle: Klucel (hydroxypropylcellulose) (HPC).
[2] abbreviates: dose: 120.0 mg/kg/injection, schedule: Q01DX005 (ip), vehicle: Klucel (hydroxypropylcellulose) (HPC).
[3] abbreviates: dose: 240.0 mg/kg/injection, schedule: Q01DX005 (ip), vehicle: Klucel (hydroxypropylcellulose) (HPC).

Take `C/C=C(/C)C(=O)O[C@H]1C[C@H](C(C)C)c2cc(C)c(O)cc2[C@H]1C`: the T/C by setting is: (dose: 57.5 mg/kg/injection, schedule: Q01DX001 (ip), vehicle: Klucel (hydroxypropylcellulose) (HPC)) 100 % of control; (dose: 115.0 mg/kg/injection, schedule: Q01DX001 (ip), vehicle: Klucel (hydroxypropylcellulose) (HPC)) 97 % of control; (dose: 230.0 mg/kg/injection, schedule: Q01DX001 (ip), vehicle: Klucel (hydroxypropylcellulose) (HPC)) 99 % of control.
In the case of `Brc1cccc2c(SCCCCCCSc3c4ccccc4nc4c(Br)cccc34)c3ccccc3nc12`, the T/C runs as follows: under setting [1], 93 % of control; under setting [2], 92 % of control; under setting [3], 93 % of control.
For the compound `O=C1c2ccccc2C(=O)N1CCC[P+](c1ccccc1)(c1ccccc1)c1ccccc1`, for the setting “dose: 1.56 mg/kg/injection, schedule: Q01DX009 (ip), vehicle: saline”, the T/C was 122 % of control.
`CC[C@@H]1C[C@@H]2CN3CCc4c([nH]c5cc(Cc6ccc(OC)c(OC)c6)c(OC)cc45)C(C(=O)OC)(C2)C13`: the T/C (dose: 0.5 mg/kg/injection, schedule: Q01DX009 (ip), vehicle: Klucel (hydroxypropylcellulose) (HPC)) is 96 % of control; the T/C (dose: 1.0 mg/kg/injection, schedule: Q01DX009 (ip), vehicle: Klucel (hydroxypropylcellulose) (HPC)) was 107 % of control; the T/C (dose: 2.0 mg/kg/injection, schedule: Q01DX009 (ip), vehicle: Klucel (hydroxypropylcellulose) (HPC)) was 111 % of control; the T/C (dose: 4.0 mg/kg/injection, schedule: Q01DX009 (ip), vehicle: Klucel (hydroxypropylcellulose) (HPC)) is 107 % of control and 97 % of control; the T/C (dose: 8.0 mg/kg/injection, schedule: Q01DX009 (ip), vehicle: Klucel (hydroxypropylcellulose) (HPC)) is 101 % of control; the T/C (dose: 16.0 mg/kg/injection, schedule: Q01DX009 (ip), vehicle: Klucel (hydroxypropylcellulose) (HPC)) was 98 % of control.
For the compound `Cc1cccc(C)c1NC(=S)N1CCC(CCCC2CCN(C(=S)Nc3c(C)cccc3C)CC2)CC1`, the T/C reads like this: (dose: 100.0 mg/kg/injection, schedule: Q04DX003 (ip), vehicle: saline with Tween-80) 86 % of control; (dose: 200.0 mg/kg/injection, schedule: Q04DX003 (ip), vehicle: saline with Tween-80) 86 % of control.
As to `CC1=CC(OC2C=C(C)C(=O)O2)OC1=O` (stereo unspecified), the T/C (dose: 100.0 mg/kg/injection, schedule: Q04DX002 (ip), vehicle: saline) is 100 % of control; the T/C (dose: 200.0 mg/kg/injection, schedule: Q04DX002 (ip), vehicle: saline) was 100 % of control; the T/C (dose: 400.0 mg/kg/injection, schedule: Q04DX002 (ip), vehicle: saline) is 104 % of control.
On to `CC1C(c2ccccc2)OCCN1C(=S)NC(=O)c1ccccc1` (stereo unspecified), for which the T/C is, setting by setting: (dose: 25.0 mg/kg/injection, schedule: Q01DX009 (ip), vehicle: Klucel (hydroxypropylcellulose) (HPC)) 102 % of control; (dose: 50.0 mg/kg/injection, schedule: Q01DX009 (ip), vehicle: Klucel (hydroxypropylcellulose) (HPC)) 101 % of control; (dose: 100.0 mg/kg/injection, schedule: Q01DX009 (ip), vehicle: Klucel (hydroxypropylcellulose) (HPC)) 100 % of control; (dose: 200.0 mg/kg/injection, schedule: Q01DX009 (ip), vehicle: Klucel (hydroxypropylcellulose) (HPC)) 111 % of control.
Turning to `C1=Cc2ccccc2/C1=C/c1cc2c3c(c1)CCCN3CCC2`, the T/C by setting is: under setting [1], 95 % of control; under setting [2], 91 % of control; under setting [3], 92 % of control.
Consider `CC(C)(C)N=O`, for which the T/C (dose: 25.0 mg/kg/injection, schedule: Q01DX009 (ip), vehicle: saline with Tween-80) was 104 % of control; the T/C (dose: 50.0 mg/kg/injection, schedule: Q01DX009 (ip), vehicle: saline with Tween-80) is 103 % of control; the T/C (dose: 100.0 mg/kg/injection, schedule: Q01DX001 (ip), vehicle: saline with Tween-80) was 100 % of control and 106 % of control; the T/C (dose: 100.0 mg/kg/injection, schedule: Q01DX009 (ip), vehicle: saline with Tween-80) was 111 % of control; the T/C (dose: 200.0 mg/kg/injection, schedule: Q01DX001 (ip), vehicle: saline with Tween-80) is 100 % of control and 106 % of control and 109 % of control; the T/C (dose: 400.0 mg/kg/injection, schedule: Q01DX001 (ip), vehicle: saline with Tween-80) is 105 % of control and 119 % of control. The T/C (dose: 800.0 mg/kg/injection, schedule: Q01DX001 (ip), vehicle: saline with Tween-80) was 89 % of control.
For `CC(=O)NC(N)=NC#N`, the T/C reads like this: (dose: 50.0 mg/kg/injection, schedule: Q01DX001 (ip), vehicle: saline) 98 % of control; (dose: 100.0 mg/kg/injection, schedule: Q01DX001 (ip), vehicle: saline) 100 % of control; (dose: 200.0 mg/kg/injection, schedule: Q01DX001 (ip), vehicle: saline) 96 % of control; (dose: 400.0 mg/kg/injection, schedule: Q01DX001 (ip), vehicle: saline) 103 % of control.
Regarding `C#CCN(Cc1ccc2nc(N)[nH]c(=O)c2c1)c1ccc(C(=O)NC(CCC(=O)O)C(=O)O)cc1` (stereo unspecified), the T/C (dose: 12.5 mg/kg/injection, schedule: Q01DX005 (ip), vehicle: water) is 103 % of control and 104 % of control and 97 % of control; the T/C (dose: 25.0 mg/kg/injection, schedule: Q01DX005 (ip), vehicle: water) was 103 % of control and 104 % of control (2×); the T/C (dose: 50.0 mg/kg/injection, schedule: Q01DX005 (ip), vehicle: water) was 109 % of control and 120 % of control (2×); the T/C (dose: 100.0 mg/kg/injection, schedule: Q01DX005 (ip), vehicle: water) was 117 % of control; the T/C (dose: 150.0 mg/kg/injection, schedule: Q01DX005 (ip), vehicle: alkali diluted with water) is 97 % of control; the T/C (dose: 200.0 mg/kg/injection, schedule: Q01DX005 (ip), vehicle: water) is 97 % of control.
Turning to `COC(=O)C(NC(=O)C(NC(=O)c1c2nc3c(C(=O)NC(C(=O)NC(C(=O)OC)C(C)C)C(C)OC(C)=O)ccc(C)c3oc-2c(C)c(=O)c1N)C(C)OC(C)=O)C(C)C` (stereo unspecified), the T/C (dose: 0.05 mg/kg/injection, schedule: Q01DX009 (ip), vehicle: water) is 107 % of control; the T/C (dose: 0.1 mg/kg/injection, schedule: Q01DX009 (ip), vehicle: water) was 107 % of control; the T/C (dose: 0.2 mg/kg/injection, schedule: Q01DX009 (ip), vehicle: water) was 100 % of control; the T/C (dose: 0.4 mg/kg/injection, schedule: Q01DX009 (ip), vehicle: water) was 97 % of control; the T/C (dose: 0.8 mg/kg/injection, schedule: Q01DX009 (ip), vehicle: water) was 100 % of control; the T/C (dose: 1.6 mg/kg/injection, schedule: Q01DX009 (ip), vehicle: water) was 100 % of control and 88 % of control. Also, the T/C is 97 % of control (dose: 3.2 mg/kg/injection, schedule: Q01DX009 (ip), vehicle: water); 97 % of control (dose: 6.4 mg/kg/injection, schedule: Q01DX009 (ip), vehicle: water); 92 % of control (dose: 12.8 mg/kg/injection, schedule: Q01DX009 (ip), vehicle: water).
`C=CC[Si](CC=C)(c1ccccc1)c1ccccc1`: the T/C was 99 % of control and 96 % of control (2×) (dose: 6.25 mg/kg/injection, schedule: Q01DX009 (ip), vehicle: saline); 98 % of control (dose: 200.0 mg/kg/injection, schedule: Q01DX009 (ip), vehicle: saline).
With `CN1CCc2c1cc(-c1ccncc1)c1c2N(C)CC1`, the T/C by setting is: (dose: 50.0 mg/kg/injection, schedule: Q01DX005 (ip), vehicle: Klucel (hydroxypropylcellulose) (HPC)) 106 % of control; (dose: 100.0 mg/kg/injection, schedule: Q01DX005 (ip), vehicle: Klucel (hydroxypropylcellulose) (HPC)) 107 % of control; (dose: 200.0 mg/kg/injection, schedule: Q01DX005 (ip), vehicle: Klucel (hydroxypropylcellulose) (HPC)) 107 % of control.
For `O=C1C(N2CCCCC2)=C(N2CC2)C(=O)C(N2CCCCC2)=C1N1CC1`, the T/C (dose: 2.5 mg/kg/injection, schedule: Q01DX009 (ip), vehicle: saline) is 112 % of control and the T/C (dose: 10.0 mg/kg/injection, schedule: Q01DX009 (ip), vehicle: saline) was 177 % of control.
In the case of `COC(=O)c1ncn(CC#N)n1`, the T/C (dose: 50.0 mg/kg/injection, schedule: Q01DX005 (ip), vehicle: saline) was 110 % of control; the T/C (dose: 100.0 mg/kg/injection, schedule: Q01DX005 (ip), vehicle: saline) is 112 % of control; the T/C (dose: 200.0 mg/kg/injection, schedule: Q01DX005 (ip), vehicle: saline) was 105 % of control.
